According to patent US11839663B2, “Radiolabelled MGL pet ligands” (Janssen Pharmaceutica NV, priority 2019, dated 2023):

Legend:
[1] = biological target: human MGL from HeLa cells (Homo sapiens (Human), UniProt Q99685); assay: MGL in vitro activity assay ([glycerol-1,3-3H]-oleyl glycerol cleavage); type: biochemical; conditions: 300 nM [Glycerol-1,3-3H]-oleyl glycerol, one hour incubation, endogenous MGL from HeLa cells
Experimental: The assay used to measure the in vitro activity of MGL is adapted from the assay used for another serine hydrolase (FAAH) described in Wilson et al., 2003 (A high-throughput-compatible assay for determining the activity of fatty acid amide hydrolase. Wilson S J, Lovenberg T W, Barbier A J. Anal Biochem. 2003 Jul. 15; 318(2):270-5.). The assay consists of combining endogenously expressed MGL from HeLa cells with test compounds, adding [glycerol-1,3-^3H]-oleyl glycerol, incubating for one hour, and then measuring the amount of cleaved [1,3-^3H]-glycerol that passes through an activated carbon filter. The amount of cleaved, tritiated glycerol passing through the carbon filter is proportional to the activity of the MGL enzyme in a particular well/test condition.
Standard conditions for this assay combine 300 nM [Glycerol-1,3-^3H]-oleyl glycerol with human MGL from HeLa cells and test compounds for one hour, after which the reaction is filtered through activated carbon and tritium is measured in the flow through. The test compound concentration in screening mode is 10 uM, while the highest compound concentration in IC50 assays is determined empirically. MGL is the predominant hydrolase in HeLa cells/cell homogenates.

MGL = MGL (Rattus norvegicus (Rat), UniProt Q8R431); assay: In vitro autoradiography (ARG) on frozen normal rat brain sections; type: binding; conditions: sagittal rat brain section 20 um, 400 uCi/ml in 50 mM Tris-HCl pH 7.4, 30 min at room temperature
Experimental: In vitro ARG using the compound of Example 3 was performed on a frozen normal rat brain sections (sagittal cut, thickness at 20 um). After taken out from freezer for 15 min, the rat brain section was added 250 ul of buffer solution (50 mM Tris-HCl pH=7.4) which contains the compound of Example 3 with the concentration of 400 uCi/ml. The brain section was incubated with the incubation buffer at room temperature for 30 min, was then washed with blank fresh buffer solution for 5 min, repeated 3 times. The brain section was air-dried, exposed to a phosphor screen in a cassette in dark environment for 18 hours. The screen was then scanned then Typhoon™ FLA 7000 Image Analyzer (GE) to generate the autoradiography of the compound of Example 3 on rat brain section (FIG. 2). […] The distribution pattern matches IHC staining pattern described below.
The IHC staining was performed on a frozen normal rat brain section (sagittal cut, thickness at 10 um) which is adjacent to the brain section used in ARG described above. After taken out from freezer for 15 min, the rat brain section was added 4% paraformaldehyde and fixed for 20 min at room temperature. The section was then washed with fresh phosphate buffer solution (PBS, 0.01 M, pH=7.4) for 5 min, repeated 3 times, followed by treatment of hydrogen peroxide solution (3% in PBS) at room temperature for 20 min. […]

Sequence of MGL (Q8R431 whole entry): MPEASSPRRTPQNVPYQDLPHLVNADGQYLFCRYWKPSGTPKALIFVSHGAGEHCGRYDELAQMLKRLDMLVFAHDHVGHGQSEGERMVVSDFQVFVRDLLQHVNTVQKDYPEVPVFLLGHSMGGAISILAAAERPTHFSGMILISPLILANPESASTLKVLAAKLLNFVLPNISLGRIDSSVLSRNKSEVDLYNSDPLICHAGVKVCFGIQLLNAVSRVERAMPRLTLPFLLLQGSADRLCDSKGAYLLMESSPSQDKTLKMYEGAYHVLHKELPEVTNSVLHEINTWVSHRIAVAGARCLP
Sequence of human MGL from HeLa cells (Q99685 whole entry): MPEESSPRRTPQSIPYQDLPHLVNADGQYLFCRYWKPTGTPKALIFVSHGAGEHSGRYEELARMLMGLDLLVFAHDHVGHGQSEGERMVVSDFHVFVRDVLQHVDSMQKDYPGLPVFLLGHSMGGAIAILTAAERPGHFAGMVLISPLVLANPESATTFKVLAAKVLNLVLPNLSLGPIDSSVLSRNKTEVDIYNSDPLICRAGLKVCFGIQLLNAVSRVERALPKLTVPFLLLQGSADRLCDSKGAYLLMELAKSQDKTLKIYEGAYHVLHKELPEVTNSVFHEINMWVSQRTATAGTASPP

IC50 [1] [pM] | Compound | ARG signals (regional distribution) (MGL)
2.3 | C[C@H]1c2nn(C)c(-c3cc(F)cc(F)c3)c2CCN1C(=O)c1c(F)cccc1Cl [Example 1, (S)-(2-Chloro-6-fluorophenyl)(3-(3,5-difluorophenyl)-2,7-dimethyl-2,4,5,7-tetrahydro-6H-pyrazolo[3,4-c]pyridin-6-yl)methanone] | –
– | C[C@H]1c2nn(C)c(-c3cc(F)cc(F)c3)c2CCN1C(=O)c1c([18F])cccc1Cl [Example 3] | high in hippocampus, cortex, cerebellum and thalamus regions and low in brainstem
